Assay results as given in ChEMBL document CHEMBL1201862, “PubChem BioAssay data set” (2004).
One block for each compound: values may come before it. Active and inactive are the calls of the source.

How the values were obtained:
[1] = molecular target: T1, Heat shock factor protein 1 (Mus musculus, UniProt P38532); test: inhibition of MG132-induced HSE-luciferase signal, confirmation, cell-based, NIH3T3, luminescence, dose retest (AID 2382); format: functional;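 note: NIH3T3 fibroblasts with HSF1-driven luciferase reporter stressed by proteasome inhibitor MG132; luminescence from HSF1-driven luciferase expression after 8 hours of MG132 stress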
T1 sequence (P38532 whole entry): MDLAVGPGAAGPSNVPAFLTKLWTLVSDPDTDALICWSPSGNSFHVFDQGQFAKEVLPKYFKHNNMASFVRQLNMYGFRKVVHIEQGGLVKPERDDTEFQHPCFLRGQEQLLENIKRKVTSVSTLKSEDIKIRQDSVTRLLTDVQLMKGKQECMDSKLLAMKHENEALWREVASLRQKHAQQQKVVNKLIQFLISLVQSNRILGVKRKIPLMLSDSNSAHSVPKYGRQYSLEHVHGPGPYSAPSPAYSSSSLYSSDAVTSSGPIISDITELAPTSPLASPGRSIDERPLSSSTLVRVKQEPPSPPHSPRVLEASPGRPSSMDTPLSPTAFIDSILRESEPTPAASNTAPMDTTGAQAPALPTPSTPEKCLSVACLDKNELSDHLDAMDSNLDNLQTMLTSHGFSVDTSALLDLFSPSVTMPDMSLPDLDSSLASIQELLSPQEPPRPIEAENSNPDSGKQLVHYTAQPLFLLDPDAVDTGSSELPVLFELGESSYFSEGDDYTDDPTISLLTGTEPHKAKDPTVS

[2] = molecular target: Voltage-dependent T-type calcium channel subunit alpha-1H (Homo sapiens, UniProt O95180); format: functional;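 note: channel activity triggered by adding a high calcium stimulation buffer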
Sequence of Voltage-dependent T-type calcium channel subunit alpha-1H (O95180 whole entry): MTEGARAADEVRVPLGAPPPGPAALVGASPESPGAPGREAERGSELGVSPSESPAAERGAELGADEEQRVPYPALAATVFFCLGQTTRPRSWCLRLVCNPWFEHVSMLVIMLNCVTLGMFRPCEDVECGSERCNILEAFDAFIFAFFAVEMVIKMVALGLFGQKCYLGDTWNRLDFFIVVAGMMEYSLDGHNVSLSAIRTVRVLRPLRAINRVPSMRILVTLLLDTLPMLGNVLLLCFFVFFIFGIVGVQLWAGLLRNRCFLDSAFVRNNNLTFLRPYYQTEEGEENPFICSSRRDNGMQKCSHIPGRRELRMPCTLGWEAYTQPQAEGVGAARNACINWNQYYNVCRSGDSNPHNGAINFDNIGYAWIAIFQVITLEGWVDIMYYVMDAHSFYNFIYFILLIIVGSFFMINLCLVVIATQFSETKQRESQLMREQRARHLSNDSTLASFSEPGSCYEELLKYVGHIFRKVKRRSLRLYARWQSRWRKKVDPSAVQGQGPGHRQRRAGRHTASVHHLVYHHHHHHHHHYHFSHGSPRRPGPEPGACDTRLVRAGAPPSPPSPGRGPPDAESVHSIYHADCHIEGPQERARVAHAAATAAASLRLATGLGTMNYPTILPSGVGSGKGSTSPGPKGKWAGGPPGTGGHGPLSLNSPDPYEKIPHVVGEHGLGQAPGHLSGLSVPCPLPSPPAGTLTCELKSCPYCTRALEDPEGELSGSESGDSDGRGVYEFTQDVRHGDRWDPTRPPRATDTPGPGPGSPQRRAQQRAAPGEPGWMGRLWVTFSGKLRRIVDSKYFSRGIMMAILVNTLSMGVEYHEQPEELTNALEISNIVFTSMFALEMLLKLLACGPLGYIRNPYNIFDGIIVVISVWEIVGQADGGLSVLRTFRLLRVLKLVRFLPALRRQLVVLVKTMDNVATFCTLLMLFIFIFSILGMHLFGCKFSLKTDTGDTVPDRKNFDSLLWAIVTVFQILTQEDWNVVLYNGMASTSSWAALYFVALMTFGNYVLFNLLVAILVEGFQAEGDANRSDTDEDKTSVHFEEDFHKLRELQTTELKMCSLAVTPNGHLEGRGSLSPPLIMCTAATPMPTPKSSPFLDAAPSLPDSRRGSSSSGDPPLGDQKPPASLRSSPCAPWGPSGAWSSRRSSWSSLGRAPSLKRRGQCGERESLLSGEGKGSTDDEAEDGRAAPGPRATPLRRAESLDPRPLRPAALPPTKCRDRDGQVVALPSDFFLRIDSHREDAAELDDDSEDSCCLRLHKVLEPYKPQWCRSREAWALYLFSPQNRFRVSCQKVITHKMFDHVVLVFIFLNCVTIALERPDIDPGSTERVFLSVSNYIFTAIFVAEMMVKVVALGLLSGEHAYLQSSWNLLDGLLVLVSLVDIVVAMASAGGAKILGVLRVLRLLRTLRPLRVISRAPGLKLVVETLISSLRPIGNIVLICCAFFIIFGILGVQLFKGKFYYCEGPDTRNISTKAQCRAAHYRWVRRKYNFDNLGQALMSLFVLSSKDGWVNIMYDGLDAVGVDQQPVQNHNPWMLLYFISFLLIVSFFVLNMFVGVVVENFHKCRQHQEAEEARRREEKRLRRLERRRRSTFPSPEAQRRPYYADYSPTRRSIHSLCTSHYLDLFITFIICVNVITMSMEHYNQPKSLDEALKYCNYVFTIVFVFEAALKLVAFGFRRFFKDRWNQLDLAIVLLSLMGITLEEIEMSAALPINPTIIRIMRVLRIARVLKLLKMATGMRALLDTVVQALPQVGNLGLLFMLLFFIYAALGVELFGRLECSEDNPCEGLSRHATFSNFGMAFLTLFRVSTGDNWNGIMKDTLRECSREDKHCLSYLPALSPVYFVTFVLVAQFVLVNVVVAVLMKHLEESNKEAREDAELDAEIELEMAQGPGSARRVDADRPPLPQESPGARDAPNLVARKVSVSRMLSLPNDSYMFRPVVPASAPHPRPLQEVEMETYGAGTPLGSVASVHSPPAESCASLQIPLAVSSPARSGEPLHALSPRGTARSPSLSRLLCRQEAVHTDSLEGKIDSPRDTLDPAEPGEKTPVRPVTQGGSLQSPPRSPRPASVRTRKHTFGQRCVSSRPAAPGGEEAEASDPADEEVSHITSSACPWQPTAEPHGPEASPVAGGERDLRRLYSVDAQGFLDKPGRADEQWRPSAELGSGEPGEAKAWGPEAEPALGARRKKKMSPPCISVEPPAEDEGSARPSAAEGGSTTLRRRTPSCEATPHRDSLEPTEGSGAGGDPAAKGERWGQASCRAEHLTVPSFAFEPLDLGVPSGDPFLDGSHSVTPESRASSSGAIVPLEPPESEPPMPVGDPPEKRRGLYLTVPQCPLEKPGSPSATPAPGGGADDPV

[3] = molecular target: Cytochrome P450 2D6 (Homo sapiens, UniProt P10635);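 note: CYP2D6 member of a cytochrome P450 panel assay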
Sequence of Cytochrome P450 2D6 (P10635 whole entry): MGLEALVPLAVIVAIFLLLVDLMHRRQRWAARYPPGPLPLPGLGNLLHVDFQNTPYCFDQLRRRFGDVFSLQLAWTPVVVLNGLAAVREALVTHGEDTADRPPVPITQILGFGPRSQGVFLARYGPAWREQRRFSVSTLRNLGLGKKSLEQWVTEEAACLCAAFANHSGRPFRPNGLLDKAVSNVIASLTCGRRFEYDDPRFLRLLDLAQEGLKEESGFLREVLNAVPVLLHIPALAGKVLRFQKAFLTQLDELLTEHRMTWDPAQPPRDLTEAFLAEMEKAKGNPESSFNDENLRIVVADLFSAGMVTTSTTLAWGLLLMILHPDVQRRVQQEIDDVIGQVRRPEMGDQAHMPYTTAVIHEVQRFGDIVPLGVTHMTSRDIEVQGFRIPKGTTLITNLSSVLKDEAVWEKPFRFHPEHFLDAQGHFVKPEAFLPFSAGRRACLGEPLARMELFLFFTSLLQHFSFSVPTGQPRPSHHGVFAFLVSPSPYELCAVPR

[4] = molecular target: T2, Cytochrome P450 3A4 (Homo sapiens, UniProt P08684);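 note: CYP3A4 tested as one member of a cytochrome P450 panel screen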
T2 sequence (P08684 whole entry): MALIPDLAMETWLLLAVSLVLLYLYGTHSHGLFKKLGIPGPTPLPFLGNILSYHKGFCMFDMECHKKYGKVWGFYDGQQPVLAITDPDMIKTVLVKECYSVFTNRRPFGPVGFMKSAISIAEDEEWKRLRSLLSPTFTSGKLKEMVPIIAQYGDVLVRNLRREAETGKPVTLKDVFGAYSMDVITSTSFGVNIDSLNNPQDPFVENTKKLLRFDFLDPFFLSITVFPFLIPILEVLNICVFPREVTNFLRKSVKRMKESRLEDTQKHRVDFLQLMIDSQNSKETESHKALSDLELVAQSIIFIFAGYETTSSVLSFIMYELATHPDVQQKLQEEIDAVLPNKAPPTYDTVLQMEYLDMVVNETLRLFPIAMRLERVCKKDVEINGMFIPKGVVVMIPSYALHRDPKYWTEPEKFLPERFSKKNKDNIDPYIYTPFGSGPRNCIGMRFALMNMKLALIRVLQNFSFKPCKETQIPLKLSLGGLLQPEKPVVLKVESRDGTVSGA

[5] = insulin promoter down-regulators in MIN6 cells, imaging, high-content screening, mouse beta cells (AID 1628); format: functional
[6] = cytotoxicity in MIN6 insulinoma cells, dose response, cytotoxicity control, cell-based, mouse insulinoma (AID 2122); format: functional;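 note: confirmatory high-throughput counterscreen run to flag cytotoxic compounds; mouse MIN-6 beta cells carrying an insulin promoter eGFP reporter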
[7] = molecular target: Photoreceptor-specific nuclear receptor (Homo sapiens, UniProt Q9Y5X4); format: functional, cell-based;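 note: CHO-S cells with Gal4-NCOR and VP16-NR2E3 two-hybrid luciferase reporter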
Sequence of Photoreceptor-specific nuclear receptor (Q9Y5X4 whole entry, the tested form may be a part): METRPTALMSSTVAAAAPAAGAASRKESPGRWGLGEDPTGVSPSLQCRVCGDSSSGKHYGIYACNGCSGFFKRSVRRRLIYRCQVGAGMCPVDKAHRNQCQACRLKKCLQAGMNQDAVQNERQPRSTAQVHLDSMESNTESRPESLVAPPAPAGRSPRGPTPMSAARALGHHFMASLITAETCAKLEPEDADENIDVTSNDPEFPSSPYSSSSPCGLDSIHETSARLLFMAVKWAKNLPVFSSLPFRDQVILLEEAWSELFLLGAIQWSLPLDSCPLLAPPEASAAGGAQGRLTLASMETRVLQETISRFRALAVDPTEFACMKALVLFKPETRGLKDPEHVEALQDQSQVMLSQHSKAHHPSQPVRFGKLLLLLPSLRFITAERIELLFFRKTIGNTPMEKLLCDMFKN

[8] = molecular target: Cytochrome P450 2C19 (Homo sapiens, UniProt P33261); test: Cytochrome panel assay with activity outcomes. Panel member name: p450-cyp2c19 Compounds with AC50 equal or less than 10 uM are considered active; format: functional
Sequence of Cytochrome P450 2C19 (P33261 whole entry): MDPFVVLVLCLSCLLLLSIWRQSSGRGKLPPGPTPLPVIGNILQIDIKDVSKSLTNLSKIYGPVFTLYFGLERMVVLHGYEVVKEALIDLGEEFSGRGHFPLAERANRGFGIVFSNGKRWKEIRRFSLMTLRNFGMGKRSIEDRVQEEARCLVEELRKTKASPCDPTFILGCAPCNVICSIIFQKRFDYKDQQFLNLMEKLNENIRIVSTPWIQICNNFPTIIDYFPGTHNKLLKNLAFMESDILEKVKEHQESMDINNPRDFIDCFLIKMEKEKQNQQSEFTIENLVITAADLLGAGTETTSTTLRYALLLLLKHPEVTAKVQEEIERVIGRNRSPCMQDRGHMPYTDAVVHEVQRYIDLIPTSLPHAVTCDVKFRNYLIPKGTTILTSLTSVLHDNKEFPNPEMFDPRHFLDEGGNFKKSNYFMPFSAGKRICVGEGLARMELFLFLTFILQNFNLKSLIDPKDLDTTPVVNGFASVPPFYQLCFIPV

[9] = molecular target: T2, Cytochrome P450 3A4; remark: listed apart in the source
[10] = molecular target: Cytochrome P450 2C9 (Homo sapiens, UniProt P11712)
Sequence of Cytochrome P450 2C9 (P11712 whole entry): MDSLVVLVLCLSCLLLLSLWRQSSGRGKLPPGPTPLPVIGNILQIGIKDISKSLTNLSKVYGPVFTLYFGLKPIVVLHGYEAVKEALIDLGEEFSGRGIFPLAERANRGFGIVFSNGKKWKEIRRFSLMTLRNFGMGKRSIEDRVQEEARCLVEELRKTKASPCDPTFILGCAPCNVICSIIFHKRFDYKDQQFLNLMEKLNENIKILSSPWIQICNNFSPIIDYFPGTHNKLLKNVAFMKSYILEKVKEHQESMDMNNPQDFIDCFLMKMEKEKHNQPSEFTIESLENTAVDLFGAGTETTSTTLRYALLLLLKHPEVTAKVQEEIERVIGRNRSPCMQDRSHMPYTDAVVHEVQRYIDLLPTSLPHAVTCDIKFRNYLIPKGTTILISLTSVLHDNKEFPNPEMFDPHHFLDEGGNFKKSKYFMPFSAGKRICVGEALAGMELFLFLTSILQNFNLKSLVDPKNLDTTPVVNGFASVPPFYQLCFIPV

[11] = tested on: INS1; test: beta cell apoptosis inhibitors, cytokine rescue, dose response, luminescence, retest (AID 449756); format: functional, cell-based; conditions: Rattus norvegicus;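 note: cell death triggered by IL-1 beta plus TNF-alpha plus IFN-gamma mixture; protective hits raise ATP signal compared with cytokine alone wells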
[12] = molecular target: T3, Lysine-specific demethylase 4A (Homo sapiens, UniProt O75164); test: JMJD2A histone demethylase inhibitors, dose response, selectivity assay for GASC-1 inhibitor project, biochemical, DELFIA europium, cherry-picked samples (AID 488840)
T3 sequence (O75164 whole entry): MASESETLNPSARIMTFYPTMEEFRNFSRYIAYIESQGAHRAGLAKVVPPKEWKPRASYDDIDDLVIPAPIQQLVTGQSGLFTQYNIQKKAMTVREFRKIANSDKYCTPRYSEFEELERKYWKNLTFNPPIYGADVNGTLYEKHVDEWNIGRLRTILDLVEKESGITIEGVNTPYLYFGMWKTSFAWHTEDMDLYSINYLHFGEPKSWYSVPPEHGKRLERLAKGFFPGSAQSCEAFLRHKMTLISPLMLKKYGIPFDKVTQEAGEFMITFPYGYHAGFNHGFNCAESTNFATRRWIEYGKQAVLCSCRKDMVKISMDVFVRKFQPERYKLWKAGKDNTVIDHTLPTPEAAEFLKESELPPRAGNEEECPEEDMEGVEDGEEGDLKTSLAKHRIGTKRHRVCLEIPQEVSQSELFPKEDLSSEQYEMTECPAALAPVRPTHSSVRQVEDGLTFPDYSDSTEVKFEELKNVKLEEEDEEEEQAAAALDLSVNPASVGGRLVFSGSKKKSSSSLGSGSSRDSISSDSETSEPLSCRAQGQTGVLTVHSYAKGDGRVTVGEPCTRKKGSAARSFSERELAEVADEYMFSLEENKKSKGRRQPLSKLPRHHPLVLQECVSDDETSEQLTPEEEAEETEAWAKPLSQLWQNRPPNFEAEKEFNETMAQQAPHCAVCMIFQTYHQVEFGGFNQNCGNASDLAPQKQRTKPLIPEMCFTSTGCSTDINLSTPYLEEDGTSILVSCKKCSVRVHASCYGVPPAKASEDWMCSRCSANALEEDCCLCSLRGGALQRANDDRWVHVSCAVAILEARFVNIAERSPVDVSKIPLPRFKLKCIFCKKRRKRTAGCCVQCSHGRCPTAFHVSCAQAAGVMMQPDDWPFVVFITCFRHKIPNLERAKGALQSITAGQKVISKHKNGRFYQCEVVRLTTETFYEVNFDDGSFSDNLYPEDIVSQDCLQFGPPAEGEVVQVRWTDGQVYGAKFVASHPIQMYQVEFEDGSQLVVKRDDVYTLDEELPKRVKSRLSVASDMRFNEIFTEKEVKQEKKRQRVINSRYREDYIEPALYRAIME

[13] = molecular target: T4, Tyrosine-protein phosphatase non-receptor type 22 (Homo sapiens, UniProt Q9Y2R2); test: SAR LYP1 Fluorescent Assay using pCAP substrate for In Vitro dose response studies - Set 2. [Related pubchem assays (depositor defined):AID1779, AID1784, AID2135, AID449727]; format: functional
T4 sequence (Q9Y2R2 whole entry): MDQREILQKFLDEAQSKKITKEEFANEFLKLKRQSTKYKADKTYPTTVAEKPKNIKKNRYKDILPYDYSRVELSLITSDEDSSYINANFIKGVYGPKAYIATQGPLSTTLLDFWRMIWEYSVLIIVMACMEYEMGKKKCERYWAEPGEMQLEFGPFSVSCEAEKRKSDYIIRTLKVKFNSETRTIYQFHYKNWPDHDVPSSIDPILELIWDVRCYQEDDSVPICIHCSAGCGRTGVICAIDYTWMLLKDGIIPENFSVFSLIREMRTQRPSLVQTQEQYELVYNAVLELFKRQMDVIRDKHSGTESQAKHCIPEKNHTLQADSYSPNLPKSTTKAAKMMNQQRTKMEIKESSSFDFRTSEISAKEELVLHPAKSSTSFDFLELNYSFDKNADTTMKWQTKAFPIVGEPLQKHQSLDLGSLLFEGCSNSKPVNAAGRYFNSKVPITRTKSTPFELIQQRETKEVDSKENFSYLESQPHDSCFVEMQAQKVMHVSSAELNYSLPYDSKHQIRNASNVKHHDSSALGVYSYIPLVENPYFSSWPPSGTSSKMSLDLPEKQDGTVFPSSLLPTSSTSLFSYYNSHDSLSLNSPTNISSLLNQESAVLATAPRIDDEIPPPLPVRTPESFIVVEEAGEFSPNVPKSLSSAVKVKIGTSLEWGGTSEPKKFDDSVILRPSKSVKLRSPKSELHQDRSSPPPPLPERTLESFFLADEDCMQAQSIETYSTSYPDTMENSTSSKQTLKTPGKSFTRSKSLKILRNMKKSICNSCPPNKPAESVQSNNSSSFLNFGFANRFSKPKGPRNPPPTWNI

[14] = molecular target: T5, Tyrosine-protein phosphatase non-receptor type 12 (Homo sapiens, UniProt Q05209); test: SAR Selectivity Analysis of small molecule inhibitors of PEST using pCAP in a fluorescence assay. [Related pubchem assays (depositor defined):AID1779, AID1784, AID2135]; format: functional
T5 sequence (Q05209 whole entry): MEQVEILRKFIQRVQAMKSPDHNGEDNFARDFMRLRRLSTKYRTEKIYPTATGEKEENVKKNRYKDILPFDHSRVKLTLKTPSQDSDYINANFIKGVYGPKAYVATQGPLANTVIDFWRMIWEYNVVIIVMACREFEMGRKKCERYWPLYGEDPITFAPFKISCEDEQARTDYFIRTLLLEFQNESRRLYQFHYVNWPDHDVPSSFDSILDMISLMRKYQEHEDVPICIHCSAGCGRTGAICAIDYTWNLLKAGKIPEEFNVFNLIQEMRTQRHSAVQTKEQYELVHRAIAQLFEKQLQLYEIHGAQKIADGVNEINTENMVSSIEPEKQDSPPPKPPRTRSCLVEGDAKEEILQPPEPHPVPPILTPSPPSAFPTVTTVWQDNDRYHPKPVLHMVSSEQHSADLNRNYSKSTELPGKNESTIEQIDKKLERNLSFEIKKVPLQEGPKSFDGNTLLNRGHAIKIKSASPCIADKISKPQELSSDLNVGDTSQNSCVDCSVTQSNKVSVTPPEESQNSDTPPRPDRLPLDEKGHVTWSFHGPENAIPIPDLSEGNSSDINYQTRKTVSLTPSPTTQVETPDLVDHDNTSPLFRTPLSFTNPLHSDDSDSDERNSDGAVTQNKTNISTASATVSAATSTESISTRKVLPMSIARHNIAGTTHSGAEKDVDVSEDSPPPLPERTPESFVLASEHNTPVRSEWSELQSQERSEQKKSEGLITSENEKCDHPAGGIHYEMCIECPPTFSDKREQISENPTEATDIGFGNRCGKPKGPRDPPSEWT

[15] = molecular target: T4, Tyrosine-protein phosphatase non-receptor type 22; test: SAR LYP1 Fluorescent Assay using OMFP substrate for In Vitro dose response studies - Set 3. [Related pubchem assays (depositor defined):AID1779, AID1784, AID2140, AID2686]; format: functional
[16] = molecular target: T6, Tyrosine-protein phosphatase non-receptor type 7 (Homo sapiens, UniProt P35236); test: HePTP (PTPN7) phosphatase inhibitor potency, SAR follow-up, biochemical, set 2 (AID 449736); format: functional
T6 sequence (P35236 whole entry): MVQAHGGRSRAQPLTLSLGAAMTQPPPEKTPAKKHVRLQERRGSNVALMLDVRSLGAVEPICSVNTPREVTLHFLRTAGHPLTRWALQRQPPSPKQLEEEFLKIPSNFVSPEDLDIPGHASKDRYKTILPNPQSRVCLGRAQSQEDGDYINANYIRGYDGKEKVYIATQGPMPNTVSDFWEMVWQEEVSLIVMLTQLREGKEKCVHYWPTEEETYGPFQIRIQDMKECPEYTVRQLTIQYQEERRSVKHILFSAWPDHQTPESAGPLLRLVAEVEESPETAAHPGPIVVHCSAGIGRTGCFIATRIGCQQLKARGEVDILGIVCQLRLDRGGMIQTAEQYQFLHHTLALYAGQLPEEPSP

[17] = molecular target: T4, Tyrosine-protein phosphatase non-receptor type 22; test: LYP (PTPN22) phosphatase inhibitor potency, SAR follow-up, biochemical, pCAP fluorogenic substrate, fluorescence, set 3 (AID 449727); format: functional
[18] = molecular target: T4, Tyrosine-protein phosphatase non-receptor type 22; test: SAR LYP1 Fluorescent Assay using OMFP substrate for In Vitro dose response studies - Set 2. [Related pubchem assays (depositor defined):AID1779, AID1784, AID2140, AID449726, AID488869]; format: functional

EC50 [1]: > 195 µM (not active)
EC50 [2]: 19.2 µM (active)
AC50 [3]: inconclusive
AC50 [4]: inconclusive
SMILES: O=S(=O)(Cc1cc(Oc2ccccc2)nc(-c2ccccc2)n1)c1ccccc1

SMILES: Cc1nc2ncnn2c(N2CCN(c3cccc(C(F)(F)F)c3)CC2)c1C
IC50 [5]: 2.94 µM (active)
IC50 [6]: 3.77 µM (active)
IC50 [7]: 0.838 µM (active)

AC50 [8]: inconclusive
AC50 [9]: 3.98 µM (inconclusive)
AC50 [10]: 3.16 µM (inconclusive)
AC50 [3]: inconclusive
SMILES: CC1(C)[C@@H]2CC[C@@](C)(C2)[C@H]1OC(=O)c1ccccc1C(=O)O

SMILES: O=C(COc1ccc2ccccc2c1)N1CCN(Cc2c[nH]c3ccccc23)CC1
IC50 [5]: 4.5 µM (active)
IC50 [6]: 3.26 µM (active)
AC50 [11]: 2.58 µM (active)

AC50 [12]: 0.644 µM (active)
SMILES: COc1cc2c(cc1OC)C1=C(C#N)COCN1CC2

IC50 [13]: > 100 µM (inactive)
IC50 [14]: > 100 µM (inactive)
IC50 [15]: > 100 µM (inactive)
IC50 [16]: > 100 µM (inactive)
IC50 [17]: > 100 µM (inactive)
IC50 [18]: > 100 µM (inactive)
SMILES: C/C(=N/NC(=O)c1ccccc1)c1ccc(OCC(=O)O)cc1
